Target: T1, Tyrosine-protein phosphatase non-receptor type 1 [1-321] (Homo sapiens, UniProt P18031)
T1 construct: 1-321
T1 sequence (P18031 whole entry): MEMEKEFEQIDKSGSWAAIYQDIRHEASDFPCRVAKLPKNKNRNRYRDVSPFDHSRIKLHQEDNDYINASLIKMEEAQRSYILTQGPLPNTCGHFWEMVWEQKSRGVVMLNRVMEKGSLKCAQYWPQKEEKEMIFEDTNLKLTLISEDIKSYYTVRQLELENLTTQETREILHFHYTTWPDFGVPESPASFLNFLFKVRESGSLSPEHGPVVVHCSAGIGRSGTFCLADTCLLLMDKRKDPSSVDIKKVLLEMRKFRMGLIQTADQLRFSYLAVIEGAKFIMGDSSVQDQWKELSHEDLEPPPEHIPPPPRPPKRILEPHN
Experiment: PTP1B Activity Assay
Details: pH 7.5; 37 °C
Description: PTP1B was diluted before the experiment to 1.2 μg/mL in Tris buffer, pH7.6 (10 mM Tris, 1.0 mM EDTA, 3.0 mM DTT, 0.01% w/v NaN3). The tested compounds were dissolved in DMSO. The enzyme reaction buffer was Tris buffer, pH 7.5 (50 mM Tris, 0.15 M NaCl, 3 mM DTT). A typical 10 μL of tested compounds was added to the enzyme solution (50 μL), and the resulting mixture was preincubated at 37°C for 30 min. The enzyme reaction was initiated by the addition of 8 mM p-NPP (40 μL).

| IC50 [µM] | SMILES |
| --- | --- |
| 138 | O=C(O)/C=C/c1ccccc1O [(2E)-3-(2-hydroxyphenyl)prop-2-enoic acid] |
| 168 | O=C(O)/C=C/c1ccc(O)cc1 [p-Coumaric Acid] |

Source: BindingDB's records for doi:10.3109/14756366.2012.715286 (Chulalongkorn University, 2013)
